For 18 compounds, EC50 results are on record in patent US8574563B2 (Bristol-Myers Squibb Company, priority 2006, dated 2013).

In the test the test system is HCV 1b-377-neo replicon cells. The experiment in a line: HCV replicon assay, HCV 1b-377-neo replicon cells (1b FRET). To be noted: Hepatitis C virus, HCV 1b-377-neo replicon cells; HCV 1b genotype; read-out: EC50 range against HCV 1b (Table 2, Range). Type of test: cell-based, Hepatitis C virus genotype 1b. A digest of the protocol: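 Compounds tested in HCV genotype 1b-377-neo replicon cells with a FRET read-out. Cells resistant to a reference NS5A inhibitor through a Y2065H NS5A mutation were run alongside wild-type cells.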
With `CCCCOC(=O)N[C@@H](C)C(=O)N1CCC[C@H]1c1nc(-c2ccc(-c3ccc(-c4cnc([C@@H]5CCCN5C(=O)[C@H](C)NC(=O)OCCCC)[nH]4)cc3)cc2)c[nH]1` [Example F21, butyl ((1S)-2-((2S)-2-(4-(4′-(2-((2S)-1-(N-(butoxycarbonyl)-L-alanyl)-2-pyrrolidinyl)-1H-imidazol-5-yl)-4-biphenylyl)-1H-imidazol-2-yl)-1-pyrrolidinyl)-1-methyl-2-oxoethyl)carbamate], the concentration giving a half-maximal response (EC50) lay in the range of 100 to 999 nM. For `CC(C)[C@H](O)C(=O)N[C@@H](C)C(=O)N1CCC[C@H]1c1nc(-c2ccc(-c3ccc(-c4cnc([C@@H]5CCCN5C(=O)[C@H](C)NC(=O)[C@@H](O)C(C)C)[nH]4)cc3)cc2)c[nH]1` [Example F22, (2S)-2-hydroxy-N-((1S)-2-((2S)-2-(5-(4′-(2-((2S)-1-(N-((2S)-2-hydroxy-3-methylbutanoyl)-L-alanyl)-2-pyrrolidinyl)-1H-imidazol-4-yl)-4-biphenylyl)-1H-imidazol-2-yl)-1-pyrrolidinyl)-1-methyl-2-oxoethyl)-3-methylbutanamide], the EC50 fell in the range of 100 to 999 nM. `CCOC(=O)N[C@H](C(=O)N1CCC[C@H]1c1nc(-c2ccc(-c3ccc(-c4c[nH]c([C@@H]5CCCN5C(=O)[C@@H](NC(=O)OCC)C(C)C)n4)cc3)cc2)c[nH]1)C(C)C` [Example F25, ethyl ((1S)-1-(((2S)-2-(4-(4′-(2-((2S)-1-((2S)-2-((ethoxycarbonyl)amino)-3-methylbutanoyl)-2-pyrrolidinyl)-1H-imidazol-4-yl)-4-biphenylyl)-1H-imidazol-2-yl)-1-pyrrolidinyl)carbonyl)-2-methylpropyl)carbamate]: the concentration giving a half-maximal response (EC50) lay in the range of 0.001 to 0.999 nM. Then `CC(C)OC(=O)N[C@H](C(=O)N1CCC[C@H]1c1nc(-c2ccc(-c3ccc(-c4c[nH]c([C@@H]5CCCN5C(=O)[C@@H](NC(=O)OC(C)C)C(C)C)n4)cc3)cc2)c[nH]1)C(C)C` [Example F26, isopropyl ((1S)-1-(((2S)-2-(4-(4′-(2-((2S)-1-((2S)-2-((isopropoxycarbonyl)amino)-3-methylbutanoyl)-2-pyrrolidinyl)-1H-imidazol-4-yl)-4-biphenylyl)-1H-imidazol-2-yl)-1-pyrrolidinyl)carbonyl)-2-methylpropyl)carbamate], with 1 to 99 nM. Take `C[C@H](O)C(=O)N1CCC[C@H]1c1nc(-c2ccc(-c3ccc(-c4cnc([C@@H]5CCCN5C(=O)[C@H](C)O)[nH]4)cc3)cc2)c[nH]1` [Example F27, (2S)-1-((2S)-2-(4-(4′-(2-((2S)-1-((2S)-2-hydroxypropanoyl)-2-pyrrolidinyl)-1H-imidazol-5-yl)-4-biphenylyl)-1H-imidazol-2-yl)-1-pyrrolidinyl)-1-oxo-2-propanol]: the concentration giving a half-maximal response (EC50) is 1 to 99 nM. For the compound `CC(C)C[C@@H](C(=O)N1CCC[C@H]1c1nc(-c2ccc(-c3ccc(-c4cnc([C@@H]5CCCN5C(=O)[C@H](CC(C)C)N(C)C(=O)OC(C)(C)C)[nH]4)cc3)cc2)c[nH]1)N(C)C(=O)OC(C)(C)C` [Example F28, tert-butyl ((1S)-1-(((2S)-2-(5-(4′-(2-((2S)-1-((2S)-2-((tert-butoxycarbonyl)(methyl)amino)-4-methylpentanoyl)-2-pyrrolidinyl)-1H-imidazol-4-yl)-4-biphenylyl)-1H-imidazol-2-yl)-1-pyrrolidinyl)carbonyl)-3-methylbutyl)methylcarbamate], the concentration giving a half-maximal response (EC50) is 1 to 99 nM. Then `CCC(C)[C@@H](C(=O)N1CCC[C@H]1c1nc(-c2ccc(-c3ccc(-c4cnc([C@@H]5CCCN5C(=O)[C@H](C(C)CC)N(C)C(=O)OC(C)(C)C)[nH]4)cc3)cc2)c[nH]1)N(C)C(=O)OC(C)(C)C` (stereo partly drawn) [Example F29, tert-butyl ((1S)-1-(((2S)-2-(5-(4′-(2-((2S)-1-((2S)-2-((tert-butoxycarbonyl)(methyl)amino)-3-methylpentanoyl)-2-pyrrolidinyl)-1H-imidazol-4-yl)-4-biphenylyl)-1H-imidazol-2-yl)-1-pyrrolidinyl)carbonyl)-2-methylbutyl)methylcarbamate], with 1 to 99 nM; and `CC(C)[C@@H](C(=O)N1CCC[C@H]1c1nc(-c2ccc(-c3ccc(-c4cnc([C@@H]5CCCN5C(=O)[C@H](C(C)C)N(C)C(=O)OC(C)(C)C)[nH]4)cc3)cc2)c[nH]1)N(C)C(=O)OC(C)(C)C` [Example F30, tert-butyl ((1S)-1-(((2S)-2-(5-(4′-(2-((2S)-1-((2S)-2-((tert-butoxycarbonyl)(methyl)amino)-3-methylbutanoyl)-2-pyrrolidinyl)-1H-imidazol-4-yl)-4-biphenylyl)-1H-imidazol-2-yl)-1-pyrrolidinyl)carbonyl)-2-methylpropyl)methylcarbamate], with 1 to 99 nM.

On to `CN[C@@H](CC(C)C)C(=O)N1CCC[C@H]1c1nc(-c2ccc(-c3ccc(-c4cnc([C@@H]5CCCN5C(=O)[C@H](CC(C)C)NC)[nH]4)cc3)cc2)c[nH]1` [Example F32, (2S)-N,4-dimethyl-1-((2S)-2-(4-(4′-(2-((2S)-1-((2S)-4-methyl-2-(methylamino)pentanoyl)-2-pyrrolidinyl)-1H-imidazol-5-yl)-4-biphenylyl)-1H-imidazol-2-yl)-1-pyrrolidinyl)-1-oxo-2-pentanamine], for which the 50% effective concentration (EC50) fell in the range of 100 to 999 nM. In the case of `CCC(C)[C@H](NC)C(=O)N1CCC[C@H]1c1nc(-c2ccc(-c3ccc(-c4cnc([C@@H]5CCCN5C(=O)[C@@H](NC)C(C)CC)[nH]4)cc3)cc2)c[nH]1` (stereo partly drawn) [Example F33, (2S)-N,3-dimethyl-1-((2S)-2-(4-(4′-(2-((2S)-1-((2S)-3-methyl-2-(methylamino)pentanoyl)-2-pyrrolidinyl)-1H-imidazol-5-yl)-4-biphenylyl)-1H-imidazol-2-yl)-1-pyrrolidinyl)-1-oxo-2-pentanamine], the EC50 was in the range of 100 to 999 nM. `CN[C@H](C(=O)N1CCC[C@H]1c1nc(-c2ccc(-c3ccc(-c4cnc([C@@H]5CCCN5C(=O)[C@@H](NC)C(C)C)[nH]4)cc3)cc2)c[nH]1)C(C)C` [Example F34, (2S)-N,3-dimethyl-1-((2S)-2-(4-(4′-(2-((2S)-1-((2S)-3-methyl-2-(methylamino)butanoyl)-2-pyrrolidinyl)-1H-imidazol-5-yl)-4-biphenylyl)-1H-imidazol-2-yl)-1-pyrrolidinyl)-1-oxo-2-butanamine]: the 50% effective concentration (EC50) was in the range of 1 to 99 nM.

With `CC[C@@H](C)[C@H](NC)C(=O)N1CCC[C@H]1c1nc(-c2ccc(-c3ccc(-c4cnc([C@@H]5CCCN5C(=O)[C@@H](NC)[C@H](C)CC)[nH]4)cc3)cc2)c[nH]1` [Example F35, (2S,3R)-N,3-dimethyl-1-((2S)-2-(4-(4′-(2-((2S)-1-((2S,3R)-3-methyl-2-(methylamino)pentanoyl)-2-pyrrolidinyl)-1H-imidazol-5-yl)-4-biphenylyl)-1H-imidazol-2-yl)-1-pyrrolidinyl)-1-oxo-2-pentanamine], the half-maximal effective concentration (EC50) was in the range of 100 to 999 nM. With `COC(=O)N[C@](C)(C(=O)N1CCC[C@H]1c1nc(-c2ccc(-c3ccc(-c4cnc([C@@H]5CCCN5C(=O)[C@@](C)(NC(=O)OC)C(C)C)[nH]4)cc3)cc2)c[nH]1)C(C)C` [Example F37, methyl ((1S)-1-(((2S)-2-(4-(4′-(2-((2S)-1-((2S)-2-((methoxycarbonyl)amino)-2,3-dimethylbutanoyl)-2-pyrrolidinyl)-1H-imidazol-5-yl)-4-biphenylyl)-1H-imidazol-2-yl)-1-pyrrolidinyl)carbonyl)-1,2-dimethylpropyl)carbamate] the figure was 100 to 999 nM. As for `COC(=O)N[C@H](C(=O)N1CCC[C@H]1c1nc(-c2ccc(-c3ccc(-c4cnc([C@@H]5CCCN5C(=O)[C@@H](NC(=O)OC)C5CCOCC5)[nH]4)cc3)cc2)c[nH]1)C1CCOCC1` [Example F38, methyl ((1S)-2-((2S)-2-(4-(4′-(2-((2S)-1-((2S)-2-((methoxycarbonyl)amino)-2-(tetrahydro-2H-pyran-4-yl)acetyl)-2-pyrrolidinyl)-1H-imidazol-5-yl)-4-biphenylyl)-1H-imidazol-2-yl)-1-pyrrolidinyl)-2-oxo-1-(tetrahydro-2H-pyran-4-yl)ethyl)carbamate], the EC50 lay in the range of 0.001 to 0.999 nM. On to `COC(=O)NC(C(=O)N1CCC[C@H]1c1nc(-c2ccc(-c3ccc(-c4cnc([C@@H]5CCCN5C(=O)C(NC(=O)OC)C5CCOCC5)[nH]4)cc3)cc2)c[nH]1)C1CCOCC1` (stereo partly drawn) [Example F39, methyl (2-((2S)-2-(4-(4′-(2-((2S)-1-(((methoxycarbonyl)amino)(tetrahydro-2H-pyran-4-yl)acetyl)-2-pyrrolidinyl)-1H-imidazol-5-yl)-4-biphenylyl)-1H-imidazol-2-yl)-1-pyrrolidinyl)-2-oxo-1-(tetrahydro-2H-pyran-4-yl)ethyl)carbamate], for which the EC50 was in the range of 0.001 to 0.999 nM. Then `CCN[C@@H](C(=O)N1CCC[C@H]1c1ncc(-c2ccc(-c3ccc(-c4c[nH]c([C@@H]5CCCN5C(=O)[C@H](C)NC(=O)OC)n4)cc3)cc2)[nH]1)c1ccccc1` [Example F41, methyl ((1S)-2-((2S)-2-(4-(4′-(2-((2S)-1-((2R)-2-(ethylamino)-2-phenylacetyl)-2-pyrrolidinyl)-1H-imidazol-5-yl)-4-biphenylyl)-1H-imidazol-2-yl)-1-pyrrolidinyl)-1-methyl-2-oxoethyl)carbamate], with 0.001 to 0.999 nM; and `CCN(CC)[C@@H](C(=O)N1CCC[C@H]1c1nc(-c2ccc(-c3ccc(-c4cnc([C@@H]5CCCN5C(=O)[C@@](C)(NC(=O)OC)C(C)C)[nH]4)cc3)cc2)c[nH]1)c1ccccc1` [Example F43, methyl ((1S)-1-(((2S)-2-(5-(4′-(2-((2S)-1-((2R)-2-(diethylamino)-2-phenylacetyl)-2-pyrrolidinyl)-1H-imidazol-4-yl)-4-biphenylyl)-1H-imidazol-2-yl)-1-pyrrolidinyl)carbonyl)-1,2-dimethylpropyl)carbamate], with 0.001 to 0.999 nM; and `COC(=O)N[C@H](C(=O)N1CCC[C@H]1c1nc(-c2ccc(-c3ccc(-c4c[nH]c([C@@H]5CCCN5C(=O)[C@H](C)NC5CCOCC5)n4)cc3)cc2)c[nH]1)C(C)C` [Example F48, methyl ((1S)-2-methyl-1-(((2S)-2-(4-(4′-(2-((2S)-1-(N-(tetrahydro-2H-pyran-4-yl)-L-alanyl)-2-pyrrolidinyl)-1H-imidazol-4-yl)-4-biphenylyl)-1H-imidazol-2-yl)-1-pyrrolidinyl)carbonyl)propyl)carbamate], with 0.001 to 0.999 nM.
